Where a SMILES comes first, the peptide text is derived from it. [ ]: non-standard residue; d: D form. Bpa = N[C@@H](Cc1ccc(C(=O)c2ccccc2)cc1)C(=O)O; Pip = O=C(O)[C@@H]1CCCCN1; Aze = O=C(O)[C@@H]1CCN1; Sar = CNCC(=O)O
What follows are compounds tested against T1, IL-1RtI (Homo sapiens, UniProt P14778) (assay: Inhibition of 125I-IL-1α binding to IL-1RtI (Example 3)). Settings: not given.
T1 construct: made in house; host or cells: recombinant host cells (one form soluble from baculovirus transformed host cells; another PIG-tailed and cleaved from the cell surface)
T1 sequence (P14778 18-336): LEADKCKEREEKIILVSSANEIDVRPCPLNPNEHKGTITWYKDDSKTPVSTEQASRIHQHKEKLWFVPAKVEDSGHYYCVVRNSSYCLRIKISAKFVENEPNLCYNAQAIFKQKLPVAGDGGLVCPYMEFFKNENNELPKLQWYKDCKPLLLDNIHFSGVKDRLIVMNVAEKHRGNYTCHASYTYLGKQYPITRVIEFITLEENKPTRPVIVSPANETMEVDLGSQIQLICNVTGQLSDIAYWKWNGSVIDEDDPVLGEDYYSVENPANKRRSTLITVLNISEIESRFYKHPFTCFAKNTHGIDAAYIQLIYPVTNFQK
Experimental: This example provides the results of experiments conducted to determine an approximate IC50 for certain peptides of the invention. IC50 as used herein refers to the concentration of a compound which will inhibit 50% of the binding between a receptor and its ligand, e.g. IL-1RtI and IL-1. Stock solutions of each peptide were prepared. The appropriate amount of the peptide was dissolved in DMSO, and then nineteen volumes of binding buffer (RPMI 1640, 1% BSA, 20 mM HEPES, pH 7.2-7.3, and 0.1% sodium azide) were added to yield a 1 mM peptide, 5% DMSO stock solution.
One assay utilized a truncated IL-1RtI which had been immobilized on 96-well plates with an appropriate antibody, typically a non-blocking high affinity antibody. In other assays, cells expressing "full-length" IL-1RtI were used with results that yielded IC50 values about 5 to 10 fold lower than those determined using the truncated receptor. The cells were seeded onto Falcon 3072 96-well plates at about 10^5 cells per well, and the plates were incubated overnight at 37° C. in media containing serum. The following morning, the cells were checked to ensure that the cells were confluent and adhered to the bottom of the wells.
According to either assay protocol, the plates were then washed three times with binding buffer, and then 50 μl of binding buffer and 25 μl of a peptide solution (either the stock solution or a dilution thereof; each stock was subjected to five three fold dilutions) were added to each well. Then 25 μl of binding buffer containing ^125 I-IL-1α (final concentration of 90 pM) were added to each well to begin the assay. Each assay was carried out in duplicate. The plates were then incubated for two hours at 4° C. For peptides having particularly high affinities, the assay was run in 24 well plates allowing for higher levels of ligand (possible total volume of 2.5 ml instead of 100 μl in the 96 well plate), thereby minimizing the potential for ligand depletion.
After the two hour incubation, the wells were rinsed three times with ice cold PBS (a semi-automated cell harvesting device was used to conduct the rinse). The receptors or cells were then detached from the plates by adding 100 μl of 0.1N NaOH to each well and incubating the plates at room temperature for 20 minutes. After the 20 minute incubation, about 75 μl of the suspension was counted on a gamma counter, and the IC50 for each peptide was determined using computer assistance and the results of the gamma counting.

Structure (SMILES) | IC50
C[C@@H](O)[C@H](NC(=O)[C@H](Cc1c[nH]c2ccccc12)NC(=O)[C@H](CCC(=O)O)NC(=O)[C@@H](N)Cc1ccccc1)C(=O)N1CCC[C@H]1C(=O)N[C@H](CC(N)=O)C(=O)N[C@@H](Cc1ccc(O)cc1)C(=O)N[C@@H](Cc1ccc(O)cc1)C(=O)N[C@@H](CCC(N)=O)C(=O)N1CC[C@H]1C(=O)N[C@@H](Cc1ccc(O)cc1)C(N)=O [FEWTPnYYQJY-NH2] (H-FEWTP[dN]YYQ[Aze]Y-NH2) | < 500 nM
C[C@@H](O)[C@H](NC(=O)[C@H](Cc1c[nH]c2ccccc12)NC(=O)[C@H](CCC(=O)O)NC(=O)[C@@H](N)Cc1ccccc1)C(=O)N1CCC[C@H]1C(=O)N[C@H](CO)C(=O)N[C@@H](Cc1ccc(O)cc1)C(=O)N[C@@H](Cc1ccc(O)cc1)C(=O)N[C@@H](CCC(N)=O)C(=O)N1CC[C@H]1C(=O)N[C@@H](Cc1ccc(O)cc1)C(N)=O [FEWTPsYYQJY-NH2] (H-FEWTP[dS]YYQ[Aze]Y-NH2) | < 500 nM

Same assay, conditions: inhibition of 125I-IL-1α binding to IL-1RtI; soluble peptide unless marked *

Structure (SMILES) | IC50
C[C@@H](O)[C@H](NC(=O)[C@H](Cc1c[nH]c2ccccc12)NC(=O)[C@H](CCC(=O)O)NC(=O)[C@@H](N)Cc1ccccc1)C(=O)N1CCC[C@H]1C(=O)NCC(=O)N[C@@H](Cc1ccc(C(=O)c2ccccc2)cc1)C(=O)N[C@@H](Cc1ccc(O)cc1)C(=O)N[C@@H](CCC(N)=O)C(=O)N1CC[C@H]1C(=O)N[C@@H](Cc1ccc(O)cc1)C(N)=O [FEWTPG--Bpa--YQJY--NH2] (H-FEWTPG[Bpa]YQ[Aze]Y-NH2) | ≤ 500 nM
C[C@H](NC(=O)CNC(=O)[C@@H]1CCCN1C(=O)[C@@H](NC(=O)[C@H](Cc1c[nH]c2ccccc12)NC(=O)[C@H](CCC(=O)O)NC(=O)[C@@H](N)Cc1ccccc1)[C@@H](C)O)C(=O)N[C@@H](Cc1c[nH]c2ccccc12)C(=O)N[C@@H](CCC(N)=O)C(=O)N1CC[C@H]1C(=O)N[C@@H](Cc1ccc(O)cc1)C(N)=O [FEWTPGAWQJY--NH2] (H-FEWTPGAWQ[Aze]Y-NH2) | 500 nM
C[C@@H](O)[C@H](NC(=O)[C@H](Cc1c[nH]c2ccccc12)NC(=O)[C@H](CCC(=O)O)NC(=O)[C@@H](N)Cc1ccccc1)C(=O)N1CCC[C@H]1C(=O)NCC(=O)N[C@@H](Cc1c[nH]c2ccccc12)C(=O)N[C@@H](Cc1ccc(O)cc1)C(=O)N[C@@H](CCC(N)=O)C(=O)N1CC[C@H]1C(=O)N[C@@H](Cc1ccc(O)cc1)C(N)=O [FEWTPGWYQJY--NH2] (H-FEWTPGWYQ[Aze]Y-NH2) | ≤ 500 nM
C[C@@H](O)[C@H](NC(=O)[C@H](Cc1c[nH]c2ccccc12)NC(=O)[C@H](CCC(=O)O)NC(=O)[C@@H](N)Cc1ccccc1)C(=O)N1CCC[C@H]1C(=O)NCC(=O)N[C@@H](Cc1ccc(O)cc1)C(=O)N[C@@H](Cc1ccc(C(=O)c2ccccc2)cc1)C(=O)N[C@@H](CCC(N)=O)C(=O)N1CC[C@H]1C(=O)N[C@@H](Cc1ccc(O)cc1)C(N)=O [FEWTPGY--Bpa--QJY--NH2] (H-FEWTPGY[Bpa]Q[Aze]Y-NH2) | ≤ 500 nM
C[C@H](NC(=O)[C@H](Cc1ccc(O)cc1)NC(=O)CNC(=O)[C@@H]1CCCN1C(=O)[C@@H](NC(=O)[C@H](Cc1c[nH]c2ccccc12)NC(=O)[C@H](CCC(=O)O)NC(=O)[C@@H](N)Cc1ccccc1)[C@@H](C)O)C(=O)N[C@@H](CCC(N)=O)C(=O)N1CC[C@H]1C(=O)N[C@@H](Cc1ccc(O)cc1)C(N)=O [FEWTPGYAQJY--NH2] (H-FEWTPGYAQ[Aze]Y-NH2) | ≤ 100000 nM
C[C@H](NC(=O)[C@H](Cc1c[nH]c2ccccc12)NC(=O)[C@H](Cc1ccc(O)cc1)NC(=O)CNC(=O)[C@@H]1CCCN1C(=O)[C@@H](NC(=O)[C@H](Cc1c[nH]c2ccccc12)NC(=O)[C@H](CCC(=O)O)NC(=O)[C@@H](N)Cc1ccccc1)[C@@H](C)O)C(=O)N1CC[C@H]1C(=O)N[C@@H](Cc1ccc(O)cc1)C(N)=O [FEWTPGYWAJY--NH2] (H-FEWTPGYWA[Aze]Y-NH2) | > 100000 nM
C[C@H](NC(=O)[C@@H]1CCN1C(=O)[C@H](CCC(N)=O)NC(=O)[C@H](Cc1c[nH]c2ccccc12)NC(=O)[C@H](Cc1ccc(O)cc1)NC(=O)CNC(=O)[C@@H]1CCCN1C(=O)[C@@H](NC(=O)[C@H](Cc1c[nH]c2ccccc12)NC(=O)[C@H](CCC(=O)O)NC(=O)[C@@H](N)Cc1ccccc1)[C@@H](C)O)C(N)=O [FEWTPGYWQJA--NH2] (H-FEWTPGYWQ[Aze]A-NH2) | ≤ 100000 nM
C[C@@H](O)[C@H](NC(=O)[C@H](Cc1c[nH]c2ccccc12)NC(=O)[C@H](CCC(=O)O)NC(=O)[C@@H](N)Cc1ccccc1)C(=O)N1CCC[C@H]1C(=O)NCC(=O)N[C@@H](Cc1ccc(O)cc1)C(=O)N[C@@H](Cc1ccc(O)cc1)C(=O)N[C@@H](CCC(N)=O)C(=O)N1CC[C@H]1C(=O)N[C@@H](Cc1ccc(C(=O)c2ccccc2)cc1)C(N)=O [FEWTPGYYQJ--Bpa--NH2] (H-FEWTPGYYQ[Aze][Bpa]-NH2) | ≤ 100000 nM
C[C@@H](O)[C@H](NC(=O)[C@H](Cc1c[nH]c2ccccc12)NC(=O)[C@H](CCC(=O)O)NC(=O)[C@@H](N)Cc1ccccc1)C(=O)N1CCC[C@H]1C(=O)N[C@@H](CC(N)=O)C(=O)N[C@@H](Cc1ccc(O)cc1)C(=O)N[C@@H](Cc1c[nH]c2ccccc12)C(=O)N[C@@H](CCC(N)=O)C(=O)N1CC[C@H]1C(=O)N[C@@H](Cc1ccc(O)cc1)C(N)=O [FEWTPNYWQJY--NH2] (H-FEWTPNYWQ[Aze]Y-NH2) | ≤ 500 nM
C[C@@H](O)[C@H](NC(=O)[C@H](Cc1c[nH]c2ccccc12)NC(=O)[C@H](CCC(=O)O)NC(=O)[C@@H](N)Cc1ccccc1)C(=O)N1CCC[C@H]1C(=O)N(C)CC(=O)N[C@@H](Cc1c[nH]c2ccccc12)C(=O)N[C@@H](Cc1ccc(O)cc1)C(=O)N[C@@H](CCC(N)=O)C(=O)N1CC[C@H]1C(=O)N[C@@H](Cc1ccc(O)cc1)C(N)=O [FEWTPSarWYQJY--NH2] (H-FEWTP[Sar]WYQ[Aze]Y-NH2) | ≤ 500 nM
C[C@@H](O)[C@H](NC(=O)[C@H](Cc1c[nH]c2ccccc12)NC(=O)[C@H](CCC(=O)O)NC(=O)[C@@H](N)Cc1ccccc1)C(=O)N1CCCC[C@H]1C(=O)NCC(=O)N[C@@H](Cc1ccc(O)cc1)C(=O)N[C@@H](Cc1c[nH]c2ccccc12)C(=O)N[C@@H](CCC(N)=O)C(=O)N1CC[C@H]1C(=O)N[C@@H](Cc1ccc(O)cc1)C(N)=O [FEWTPecGYWQJY--NH2] (H-FEWT[Pip]GYWQ[Aze]Y-NH2) | ≤ 500 nM
CC(C)[C@@H](NC(=O)[C@@H]1CCCN1C(=O)[C@@H](NC(=O)[C@H](Cc1c[nH]c2ccccc12)NC(=O)[C@H](CCC(=O)O)NC(=O)[C@@H](N)Cc1ccccc1)[C@@H](C)O)C(=O)N[C@@H](Cc1ccc(O)cc1)C(=O)N[C@@H](Cc1c[nH]c2ccccc12)C(=O)N[C@@H](CCC(N)=O)C(=O)N1CC[C@H]1C(=O)N[C@@H](Cc1ccc(O)cc1)C(N)=O [FEWTPvYWQJY--NH2] (H-FEWTP[dV]YWQ[Aze]Y-NH2) | ≤ 500 nM
C[C@@H](O)[C@H](NC(=O)[C@H](Cc1c[nH]c2ccccc12)NC(=O)[C@H](CCC(=O)O)NC(=O)[C@@H](N)Cc1ccccc1)C(=O)N(C)CC(=O)NCC(=O)N[C@@H](Cc1ccc(O)cc1)C(=O)N[C@@H](Cc1c[nH]c2ccccc12)C(=O)N[C@@H](CCC(N)=O)C(=O)N1CC[C@H]1C(=O)N[C@@H](Cc1ccc(O)cc1)C(N)=O [FEWTSarGYWQJY--NH2] (H-FEWT[Sar]GYWQ[Aze]Y-NH2) | ≤ 500 nM
CC(C)[C@H](NC(=O)[C@@H](NC(=O)[C@H](Cc1c[nH]c2ccccc12)NC(=O)[C@H](CCC(=O)O)NC(=O)[C@@H](N)Cc1ccccc1)[C@@H](C)O)C(=O)N1CCC[C@H]1C(=O)N[C@@H](Cc1ccc(O)cc1)C(=O)N[C@@H](Cc1c[nH]c2ccccc12)C(=O)N[C@@H](CCC(N)=O)C(=O)N1CC[C@H]1C(=O)N[C@@H](Cc1ccc(O)cc1)C(N)=O [FEWTVPYWQJY--NH2] (H-FEWTVPYWQ[Aze]Y-NH2) | ≤ 100000 nM
